Reference: patent publication US20240343704A1, “HALO-SUBSTITUTED AMINO PYRIDINE COMPOUNDS AS INHIBITORS OF THE HAEMATOPOIETIC PROGENITOR KINASE 1 (HPK1)” (priority 2021, published 2024)

Columns and labels:
[1] = target: T1, Recombinant (1-346) HPK1 (h) (Homo sapiens, UniProt Q92918); assay: HPK1 Human STE Kinase Enzymatic Radiometric Assay; assay type: biochemical; conditions: read-out: HPK1 IC50 nM Range*
T1 construct: Recombinant (1-346) HPK1 (h) is incubated with 8 mM MOPS pH 7.0
T1 sequence (Q92918 1-346): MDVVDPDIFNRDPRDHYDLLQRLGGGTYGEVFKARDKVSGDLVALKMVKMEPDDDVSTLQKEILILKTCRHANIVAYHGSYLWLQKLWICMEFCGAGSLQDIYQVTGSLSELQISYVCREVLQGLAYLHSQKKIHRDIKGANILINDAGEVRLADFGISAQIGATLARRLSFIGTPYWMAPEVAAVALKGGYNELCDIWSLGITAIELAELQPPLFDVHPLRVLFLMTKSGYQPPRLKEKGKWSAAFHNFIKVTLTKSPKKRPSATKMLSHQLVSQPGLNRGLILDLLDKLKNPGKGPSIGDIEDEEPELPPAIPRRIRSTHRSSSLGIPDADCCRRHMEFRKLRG
Description: A stock solution of 10 mM of test compound is prepared in DMSO. The compound plate was prepared by 3-fold and 9-point serial dilutions. […] The reaction is initiated by The addition of the Mg/ATP mix. After incubation for 40 minutes at RT, the reaction is stopped by the addition of phosphoric acid to a concentration of 0.5%.

Lck (h) = Lck (h) (Homo sapiens, UniProt P06239); assay: Lck Human  Kinase Enzymatic Radiometric Assay; assay type: biochemical; conditions: read-out: Lck IC50 nM Range*
Summary of the method: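 Substrate 33P-incorporation measured by scintillation counting after spotting on P30 filtermat and phosphoric acid washes. Human Lck reacted 40 min at RT in 50 mM Tris pH 7.5 with 10 mM MgAcetate, [gamma-33P]-ATP, 250 uM Cdc2 peptide, 0.1 mM EGTA and 0.1 mM Na3VO4.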

Chain of Lck (h) (P06239 whole entry): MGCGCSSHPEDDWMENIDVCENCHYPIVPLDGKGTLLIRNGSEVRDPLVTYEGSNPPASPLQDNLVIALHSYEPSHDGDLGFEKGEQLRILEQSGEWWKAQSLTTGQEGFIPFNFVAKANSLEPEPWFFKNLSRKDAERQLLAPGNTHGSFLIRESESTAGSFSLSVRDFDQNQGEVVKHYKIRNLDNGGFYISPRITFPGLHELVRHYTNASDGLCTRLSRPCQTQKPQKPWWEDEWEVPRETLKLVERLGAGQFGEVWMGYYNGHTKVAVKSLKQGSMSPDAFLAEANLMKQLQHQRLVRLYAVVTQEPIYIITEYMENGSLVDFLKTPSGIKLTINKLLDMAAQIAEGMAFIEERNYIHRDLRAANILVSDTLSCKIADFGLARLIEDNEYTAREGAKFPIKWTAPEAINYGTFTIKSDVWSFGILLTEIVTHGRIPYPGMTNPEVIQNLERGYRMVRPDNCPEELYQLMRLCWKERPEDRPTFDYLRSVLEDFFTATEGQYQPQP

IC50 [1]	IC50 (Lck (h))	Compound
0.1 to 10 nM	> 1000 nM	Nc1nc(F)c(-c2ccc(N3CCC4(CC3)CN(C3CCC3)C4)cc2)cc1-c1cc2c(cc1F)C(=O)NCC2 [I-449, 6-(2-amino-5-(4-(2-cyclobutyl-2,7-diazaspiro[3.5]nonan-7-yl)phenyl)-6-fluoropyridin-3-yl)-7-fluoro-3,4-dihydroisoquinolin-1(2H)-one]
0.1 to 10 nM	> 1000 nM	Cc1cc2cc(-c3cc(-c4ccc(N5CCN(CC6CC6)CC5)cc4)c(F)nc3N)cc(F)c2c(=O)[nH]1 [I-454, 6-(2-amino-5-(4-(4-(cyclopropylmethyl)piperazin-1-yl)phenyl)-6-fluoropyridin-3-yl)-8-fluoro-3-methylisoquinolin-1(2H)-one]
0.1 to 10 nM	> 1000 nM	Cc1c[nH]c(=O)c2ccc(-c3cc(-c4ccc(N5CCN(CC6CC6)CC5)cc4)c(F)nc3N)cc12 [I-457, 6-(2-amino-5-(4-(4-(cyclopropylmethyl)piperazin-1-yl)phenyl)-6-fluoropyridin-3-yl)-4-methylisoquinolin-1(2H)-one]
0.1 to 10 nM	> 1000 nM	Cc1[nH]c(=O)c2c(F)cc(-c3cc(-c4ccc(N5CCN(C(C)C)CC5)cc4)c(F)nc3N)cc2c1F [I-481, 6-(2-amino-6-fluoro-5-(4-(4-isopropylpiperazin-1-yl)phenyl)pyridin-3-yl)-4,8-difluoro-3-methylisoquinolin-1(2H)-one]
0.1 to 10 nM	> 1000 nM	CN(C)Cc1cc(-c2cc(-c3ccc4c(=O)[nH]cc(F)c4c3)c(N)nc2F)ccc1C1CCOCC1 [I-503, 6-(2-amino-5-(3-((dimethylamino)methyl)-4-(tetrahydro-2H-pyran-4-yl)phenyl)-6-fluoropyridin-3-yl)-4-fluoroisoquinolin-1(2H)-one]
0.1 to 10 nM	> 1000 nM	CN(C)Cc1nc(-c2cc(-c3ccc4c(c3)CCNC4=O)c(N)nc2F)ccc1N1CCOCC1 [I-551, 6-(6′-amino-6-((dimethylamino)methyl)-2′-fluoro-5-morpholino-[2,3′-bipyridin]-5′-yl)-3,4-dihydroisoquinolin-1(2H)-one]
0.1 to 10 nM	> 1000 nM	CC(=O)N1CCN(c2ccc(-c3cc(-c4ccc5c(c4)CCNC5=O)c(N)nc3F)nc2)CC1 [I-591, 6-(5-(4-acetylpiperazin-1-yl)-6′-amino-2′-fluoro-[2,3′-bipyridin]-5′-yl)-3,4-dihydroisoquinolin-1(2H)-one]

More lines, now with the values behind:

Compound	IC50 [1]	IC50 (Lck (h))
CN(C)Cc1cc(-c2cc(-c3ccc4c(c3)CCNC4=O)c(N)nc2F)ccc1N1CCN(C2CCCC2)CC1 [I-451, 6-(2-amino-5-(4-(4-cyclopentylpiperazin-1-yl)-3-((dimethylamino)methyl)phenyl)-6-fluoropyridin-3-yl)-3,4-dihydroisoquinolin-1(2H)-one]	0.1 to 10 nM	> 1000 nM
Nc1nc(F)c(-c2ccc(N3CCN(CC4CC4)CC3)cc2)cc1-c1ccc2c(=O)[nH]cc(F)c2c1 [I-455, 6-(2-amino-5-(4-(4-(cyclopropylmethyl)piperazin-1-yl)phenyl)-6-fluoropyridin-3-yl)-4-fluoroisoquinolin-1(2H)-one]	0.1 to 10 nM	> 1000 nM
COC1CCN(Cc2cc(-c3cc(-c4cc5c(cc4F)C(=O)NCC5)c(N)nc3F)ccc2N2CCOCC2)C1 (centres unmarked) [I-543, 6-(2-amino-6-fluoro-5-(3-((3-methoxypyrrolidin-1-yl)methyl)-4-morpholinophenyl)pyridin-3-yl)-7-fluoro-3,4-dihydroisoquinolin-1(2H)-one]	0.1 to 10 nM	11 to 100 nM
Nc1nc(F)c(-c2ccc(N3CCN(CC4CC4)CC3)cc2)cc1-c1cc2c(F)c[nH]c(=O)c2cc1F [I-548, 6-(2-amino-5-(4-(4-(cyclopropylmethyl)piperazin-1-yl)phenyl)-6-fluoropyridin-3-yl)-4,7-difluoroisoquinolin-1(2H)-one]	0.1 to 10 nM	> 1000 nM
CCN(C)Cc1nc(-c2cc(-c3ccc4c(c3)CCNC4=O)c(N)nc2F)ccc1N1CCOCC1 [I-580, 6-(6′-amino-6-((ethyl(methyl)amino)methyl)-2′-fluoro-5-morpholino-[2,3′-bipyridin]-5′-yl)-3,4-dihydroisoquinolin-1(2H)-one]	0.1 to 10 nM	> 1000 nM
Nc1nc(F)c(-c2ccc(N3CCOCC3)c(CN3CCC3)c2F)cc1-c1ccc2c(c1)CCNC2=O [I-609, 6-(2-amino-5-(3-(azetidin-1-ylmethyl)-2-fluoro-4-morpholinophenyl)-6-fluoropyridin-3-yl)-3,4-dihydroisoquinolin-1(2H)-one]	11 to 100 nM	> 1000 nM
